Reference: patent US11541059B2, “Heterocyclic compounds and uses thereof” (Infinity Pharmaceuticals, Inc., priority 2014, dated 2023)
Read-outs that look alike come from different tables or passages of the source.

What was measured:
PI3K-δ in RAJI cells = PI3K-δ in RAJI cells (Homo sapiens (Human), UniProt O00329); experiment: RAJI p110 δ assay (phospho-AKT, anti-human IgM stimulated); assay type: cell-based
Experimental: Reduction of phospho-AKT is indicative of compounds that may inhibit B-cell proliferation and function in certain diseases.
Certain compounds provided herein were tested in RAJI cell model using procedures as described above.

PI3K β = PI3K β (Homo sapiens (Human), UniProt P42338); experiment: PI3-Kinase Promega ADP-Glo Max assay; assay type: biochemical
Experimental: (§4) Promega ADP-Glo Max assay kit (Cat. No. V7002) was utilized to determine IC50 values for α, β, δ and γ isoforms of human Class I PI3 kinases (Millipore). […] Reactions were incubated at room temperature for 2 hours followed by addition of 25 uL of stop solution. After a 40-minute incubation at room temperature, 50 uL of Promega detection mix was added followed by incubation for 1 hour at room temperature. Plates were then read on Envision plate reader in luminescence mode. Data was converted to % inhibition using the following equation below:
(§5) [formula] where S is the sample luminescence, Pos is a positive control without added PI3K, Neg is the negative control without added compound. Data was then plotted as % inhibition vs compound concentration.

PI3K δ = PI3K δ (Homo sapiens (Human), UniProt O00329); experiment: PI3-Kinase Promega ADP-Glo Max assay; assay type: biochemical
Experimental: as §4, §5

PI3K α = PI3K α (Homo sapiens (Human), UniProt P42336); experiment: PI3-Kinase Promega ADP-Glo Max assay; assay type: biochemical
Experimental: as §4, §5

PI3K γ = PI3K γ (Homo sapiens (Human), UniProt P48736); experiment: PI3-Kinase Promega ADP-Glo Max assay; assay type: biochemical
Experimental: as §4, §5

[1] = molecular target: PI3K-γ in RAW264.7 macrophages (Mus musculus (Mouse), UniProt Q9JHG7); experiment: Raw264.7 p110 γ assay (phospho-AKT, C5a stimulated); assay type: cell-based
Text: Briefly, serum-starved RAW264.7 cells are stimulated with a known GPCR agonist C5a. […] Cells can be treated with test compounds prior to, simultaneously with, or subsequent to the stimulation by C5a. RAW 264.7 cells respond to the complement component fragment C5a through activation of the C5a receptor, and the C5a receptor activates macrophages and induces cell migration.

[2] = Pharmacokinetics of Compound 88, oral; assay type: in vivo, mouse; conditions: female C57 mice
Experimental: A similar study was carried out using Compound 88. […] Below is a table that details the results for Compound 88: […]

[3] = system: CXCL12 induced p-AKT in M2 polarized macrophage; experiment: CXCL12-induced p-AKT induction assay, M2 polarized macrophages; assay type: cell-based, mouse
Text: (§1) Long bones from young C57B6 mice were harvested and bone marrow was extruded by gentle lavage of the bone marrow cavities with a 28 guage needle. Red blood cells were removed using red blood cell lysis buffer (Sigma). Bone marrow cells were differentiated to macrophages using MCSF for 6 days (RPMI and 20% FCS) with one media change (with removal of all non-adherent cells) at day 3. Macrophages were polarized into M0 (MCSF), M1 (MCSF, IFNγ, and LPS for 1 day), or M2 (MCSF, IL4 for 2 days).
(§2) CXCL12-induced p-AKT induction assay: Polarized macrophages were lifted with Acutase, and plated at 0.5M cells per well (0.5 ml) in a deep well (2 ml) non adherant plate in polarization media for 1 hour. […] CXCL12 was added, and the cells were mixed on a plate shaker for 2 minutes. 1 ml of 37 degree FACS Lyse/fix buffer (BD bioscience) was added and the plate was mixed for 1 minute. The plates were spun and decanted and frozen at −80° C. Phospho AKT staining with anti Phospho AKT 473 PERCP labeled (Cell Signaling Technologies) was performed and measured by flow cytometry. Total cell MFI was used to calculate the effect of tested compound on CXCL12 induction of phospho AKT.

[4] = Oral PK in the rat LPS studies (free plasma concentration); assay type: in vivo; conditions: p.o. 0.2 mg/kg
Text: (§3) This study also includes assessment of the exposure to the compounds in plasma and lung tissues.

human T cells = experiment: Concanavalin A-induced model for activation of human T cells (IFN-γ); assay type: cell-based; conditions: isoform selective concentrations
[5] = system: LPS induced neutrophil influx in BALF; experiment: LPS-induced neutrophilia, oral administration; assay type: in vivo; conditions: rat, p.o., 4 hours post-LPS challenge
Text: as §3

[6] = system: CXCL12 induced p-AKT in M1 polarized macrophage; experiment: CXCL12-induced p-AKT induction assay, M1 polarized macrophages; assay type: cell-based, mouse
Text: as §1, §2

LLC tumor = LLC tumor brei model with or without cyclophosphamide; assay type: in vivo, mouse; conditions: BB 15 mg/kg QD PO; cyclophosphamide 50 mg/kg EOD IP, FIG. 48
Experimental: In this experiment, treatment began when tumors reached approx. 150 mm^3—around day 12. Caliper and xenogen images were monitored. Treatment groups n=13-15/group. […] Samples for FACs analysis were collected on day 23 post implant. Using FACS, cells were assayed for the level of CD11b and Gr-1.

PI3K γ, sequence (P48736 whole entry): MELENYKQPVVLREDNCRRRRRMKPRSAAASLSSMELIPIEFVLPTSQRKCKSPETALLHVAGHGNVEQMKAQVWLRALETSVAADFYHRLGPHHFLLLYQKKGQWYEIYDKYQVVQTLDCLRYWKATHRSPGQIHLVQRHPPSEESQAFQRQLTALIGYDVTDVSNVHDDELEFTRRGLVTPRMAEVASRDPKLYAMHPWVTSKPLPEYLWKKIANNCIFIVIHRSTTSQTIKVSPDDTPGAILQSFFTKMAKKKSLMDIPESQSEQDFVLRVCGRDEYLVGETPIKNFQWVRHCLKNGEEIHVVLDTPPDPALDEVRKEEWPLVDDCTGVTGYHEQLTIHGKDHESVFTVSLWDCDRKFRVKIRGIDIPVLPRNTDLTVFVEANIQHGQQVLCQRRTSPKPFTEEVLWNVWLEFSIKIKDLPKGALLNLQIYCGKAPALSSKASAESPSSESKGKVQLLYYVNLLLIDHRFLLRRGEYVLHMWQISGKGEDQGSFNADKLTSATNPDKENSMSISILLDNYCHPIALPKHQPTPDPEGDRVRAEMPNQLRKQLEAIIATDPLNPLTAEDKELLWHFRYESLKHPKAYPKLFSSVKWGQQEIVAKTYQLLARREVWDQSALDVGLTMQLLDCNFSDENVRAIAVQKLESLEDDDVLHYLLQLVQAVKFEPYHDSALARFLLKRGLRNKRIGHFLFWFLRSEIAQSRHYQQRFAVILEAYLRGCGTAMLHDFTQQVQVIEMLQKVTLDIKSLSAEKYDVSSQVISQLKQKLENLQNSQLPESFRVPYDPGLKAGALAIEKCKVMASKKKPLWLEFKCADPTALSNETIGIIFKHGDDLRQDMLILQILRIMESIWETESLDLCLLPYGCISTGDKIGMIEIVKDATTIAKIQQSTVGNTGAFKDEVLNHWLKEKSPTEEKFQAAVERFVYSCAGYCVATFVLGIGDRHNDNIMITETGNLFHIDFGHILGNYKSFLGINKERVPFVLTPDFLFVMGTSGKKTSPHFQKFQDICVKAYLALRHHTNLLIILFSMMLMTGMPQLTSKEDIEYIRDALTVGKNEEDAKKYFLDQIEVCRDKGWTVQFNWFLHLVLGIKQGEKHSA
PI3K-γ in RAW264.7 macrophages, sequence (Q9JHG7 whole entry): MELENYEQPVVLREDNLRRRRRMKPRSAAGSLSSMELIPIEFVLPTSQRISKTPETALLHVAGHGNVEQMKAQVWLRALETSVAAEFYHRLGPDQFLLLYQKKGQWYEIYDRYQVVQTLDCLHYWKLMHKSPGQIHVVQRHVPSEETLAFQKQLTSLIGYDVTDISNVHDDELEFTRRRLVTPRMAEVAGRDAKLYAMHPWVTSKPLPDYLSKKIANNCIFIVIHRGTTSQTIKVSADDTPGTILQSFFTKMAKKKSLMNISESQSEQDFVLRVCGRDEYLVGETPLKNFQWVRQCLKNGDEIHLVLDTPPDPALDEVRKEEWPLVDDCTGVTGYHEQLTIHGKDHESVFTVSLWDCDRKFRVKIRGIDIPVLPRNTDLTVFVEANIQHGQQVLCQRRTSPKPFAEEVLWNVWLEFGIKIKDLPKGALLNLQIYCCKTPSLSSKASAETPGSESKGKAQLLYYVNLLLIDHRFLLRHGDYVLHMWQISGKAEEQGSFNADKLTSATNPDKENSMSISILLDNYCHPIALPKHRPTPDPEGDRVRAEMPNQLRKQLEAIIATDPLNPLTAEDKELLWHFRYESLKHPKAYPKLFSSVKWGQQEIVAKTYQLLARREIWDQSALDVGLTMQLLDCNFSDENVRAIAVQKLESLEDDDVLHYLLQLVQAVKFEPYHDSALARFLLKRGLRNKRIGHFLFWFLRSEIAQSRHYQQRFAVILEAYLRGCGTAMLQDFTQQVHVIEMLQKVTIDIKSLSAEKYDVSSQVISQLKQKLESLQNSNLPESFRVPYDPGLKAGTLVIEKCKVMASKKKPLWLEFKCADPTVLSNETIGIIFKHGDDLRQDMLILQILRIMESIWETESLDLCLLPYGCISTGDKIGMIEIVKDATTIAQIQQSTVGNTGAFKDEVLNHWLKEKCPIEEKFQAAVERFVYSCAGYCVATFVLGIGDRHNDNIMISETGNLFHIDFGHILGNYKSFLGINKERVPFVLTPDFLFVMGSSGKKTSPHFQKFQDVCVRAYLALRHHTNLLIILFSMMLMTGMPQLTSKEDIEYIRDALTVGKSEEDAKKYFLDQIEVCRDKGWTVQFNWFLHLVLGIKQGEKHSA
PI3K α, sequence (P42336 whole entry): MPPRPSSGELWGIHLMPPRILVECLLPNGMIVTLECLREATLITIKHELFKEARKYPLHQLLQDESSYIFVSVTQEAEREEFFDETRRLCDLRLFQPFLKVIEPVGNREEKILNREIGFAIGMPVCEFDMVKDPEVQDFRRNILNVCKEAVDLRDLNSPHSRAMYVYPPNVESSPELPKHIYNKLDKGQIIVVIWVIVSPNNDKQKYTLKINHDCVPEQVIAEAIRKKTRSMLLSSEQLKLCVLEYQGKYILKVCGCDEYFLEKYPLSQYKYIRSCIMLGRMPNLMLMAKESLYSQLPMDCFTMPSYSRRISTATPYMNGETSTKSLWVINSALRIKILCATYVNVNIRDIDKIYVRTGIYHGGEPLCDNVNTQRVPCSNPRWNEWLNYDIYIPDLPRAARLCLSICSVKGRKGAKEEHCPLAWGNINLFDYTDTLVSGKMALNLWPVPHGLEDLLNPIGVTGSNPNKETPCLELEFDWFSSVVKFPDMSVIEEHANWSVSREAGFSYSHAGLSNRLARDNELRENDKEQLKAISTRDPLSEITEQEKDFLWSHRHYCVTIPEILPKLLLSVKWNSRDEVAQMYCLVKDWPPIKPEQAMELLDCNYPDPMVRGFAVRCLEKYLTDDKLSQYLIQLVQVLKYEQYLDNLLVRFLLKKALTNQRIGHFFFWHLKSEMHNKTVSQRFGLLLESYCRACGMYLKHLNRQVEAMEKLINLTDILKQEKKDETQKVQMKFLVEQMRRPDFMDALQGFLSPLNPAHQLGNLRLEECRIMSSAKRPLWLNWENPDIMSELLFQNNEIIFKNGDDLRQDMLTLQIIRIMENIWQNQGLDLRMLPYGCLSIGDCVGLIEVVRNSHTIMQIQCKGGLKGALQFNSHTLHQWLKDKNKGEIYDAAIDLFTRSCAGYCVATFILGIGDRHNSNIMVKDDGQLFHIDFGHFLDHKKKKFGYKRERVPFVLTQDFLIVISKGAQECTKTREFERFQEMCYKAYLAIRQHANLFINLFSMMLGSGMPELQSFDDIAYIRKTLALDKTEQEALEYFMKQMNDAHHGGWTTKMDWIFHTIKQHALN
PI3K α, sequence (P27986 whole entry partner): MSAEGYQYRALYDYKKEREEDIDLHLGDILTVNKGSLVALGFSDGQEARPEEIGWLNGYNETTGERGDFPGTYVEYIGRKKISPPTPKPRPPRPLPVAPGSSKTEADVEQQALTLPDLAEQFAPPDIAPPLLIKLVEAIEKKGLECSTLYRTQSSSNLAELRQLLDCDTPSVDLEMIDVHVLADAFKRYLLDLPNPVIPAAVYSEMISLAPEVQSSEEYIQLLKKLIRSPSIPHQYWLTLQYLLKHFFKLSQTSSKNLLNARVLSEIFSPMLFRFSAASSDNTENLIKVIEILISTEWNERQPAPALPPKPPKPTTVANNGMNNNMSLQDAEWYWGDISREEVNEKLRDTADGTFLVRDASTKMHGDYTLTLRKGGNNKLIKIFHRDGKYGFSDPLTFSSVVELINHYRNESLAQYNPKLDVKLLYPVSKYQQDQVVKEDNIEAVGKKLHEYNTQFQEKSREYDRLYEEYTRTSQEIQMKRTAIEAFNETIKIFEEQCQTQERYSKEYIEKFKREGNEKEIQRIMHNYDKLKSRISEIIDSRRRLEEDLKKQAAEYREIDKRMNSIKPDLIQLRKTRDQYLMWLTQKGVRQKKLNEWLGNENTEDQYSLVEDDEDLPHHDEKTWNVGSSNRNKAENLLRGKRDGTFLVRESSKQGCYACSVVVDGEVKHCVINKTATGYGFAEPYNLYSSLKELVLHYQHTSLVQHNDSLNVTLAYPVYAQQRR
PI3K β, sequence (P42338 whole entry): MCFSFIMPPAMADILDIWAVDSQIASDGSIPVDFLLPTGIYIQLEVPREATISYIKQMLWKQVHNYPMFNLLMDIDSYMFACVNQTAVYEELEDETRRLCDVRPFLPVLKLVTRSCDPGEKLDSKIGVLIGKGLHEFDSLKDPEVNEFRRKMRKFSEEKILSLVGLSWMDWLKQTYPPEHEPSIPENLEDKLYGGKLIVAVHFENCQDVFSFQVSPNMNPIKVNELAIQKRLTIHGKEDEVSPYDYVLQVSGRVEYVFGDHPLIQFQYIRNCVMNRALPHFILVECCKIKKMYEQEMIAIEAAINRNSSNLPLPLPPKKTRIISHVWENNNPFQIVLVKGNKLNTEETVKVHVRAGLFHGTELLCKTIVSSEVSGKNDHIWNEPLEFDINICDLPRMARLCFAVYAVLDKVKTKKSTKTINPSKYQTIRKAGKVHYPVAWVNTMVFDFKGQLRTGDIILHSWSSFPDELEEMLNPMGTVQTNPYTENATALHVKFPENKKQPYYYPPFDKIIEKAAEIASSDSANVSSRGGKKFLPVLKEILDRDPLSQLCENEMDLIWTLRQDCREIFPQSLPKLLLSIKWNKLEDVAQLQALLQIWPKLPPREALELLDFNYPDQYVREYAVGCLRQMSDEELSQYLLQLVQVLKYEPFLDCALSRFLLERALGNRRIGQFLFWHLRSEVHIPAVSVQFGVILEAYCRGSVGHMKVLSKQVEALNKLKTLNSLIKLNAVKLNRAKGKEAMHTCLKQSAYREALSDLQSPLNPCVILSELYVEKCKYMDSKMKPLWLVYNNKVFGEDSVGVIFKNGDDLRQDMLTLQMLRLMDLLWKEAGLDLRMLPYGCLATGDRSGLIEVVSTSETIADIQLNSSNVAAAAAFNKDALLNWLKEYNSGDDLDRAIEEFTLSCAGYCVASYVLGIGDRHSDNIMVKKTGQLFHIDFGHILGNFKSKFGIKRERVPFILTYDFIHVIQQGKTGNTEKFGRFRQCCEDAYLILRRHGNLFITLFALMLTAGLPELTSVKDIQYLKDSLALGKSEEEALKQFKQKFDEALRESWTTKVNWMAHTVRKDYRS
PI3K β, sequence (P27986 whole entry partner): as the sequence (P27986 whole entry partner) above

C[C@H](NC(=O)c1c(N)nn2cccnc12)c1nc2cccc(C#CC(C)(C)C)c2c(=O)n1-c1ccccc1 [Compound 3]
IC50 (PI3K-δ in RAJI cells): 1 to 10 µM
IC50 (PI3K β): 5 to 10 µM
IC50 (PI3K δ): 5 to 10 µM
IC50 (PI3K α): 5 to 10 µM
IC50 (PI3K γ): 1 to 5 µM
PI3K δ/PI3K γ IC50 (selectivity) (PI3K γ; ratio of biochemical IC50s): W (W = > 1 to <10)
RAJI δ/Raw264.7 γ IC50 (selectivity) [1]: X (key: V = 0.1 to 1; W = > 1 to <10; X = 10 to <50; Y = 50 to <850)
IC50 ([1]; phospho-AKT): 0.05 to 0.1 µM

C[C@H](NC(=O)c1c(N)nn2cccnc12)c1cc2cccc(C#CC3CC3)c2c(=O)n1-c1ccccc1 [Compound 9]
PI3K δ/PI3K γ IC50 (selectivity) (PI3K γ): X (key: V = 0.1 to 1; W = > 1 to <10; X = 10 to <50; Y = 50 to <850)
RAJI δ/Raw264.7 γ IC50 (selectivity) [1]: Y (key: V = 0.1 to 1; W = > 1 to <10; X = 10 to <50; Y = 50 to <850)

Cc1cnc(C(=O)N[C@@H](C)c2cc3cccc(C#Cc4cnn(C)c4)c3c(=O)n2-c2ccccc2)c(N)n1 [Compound 68]
PI3K δ/PI3K γ IC50 (selectivity) (PI3K γ; ratio of biochemical IC50s): W (W = > 1 to <10)
RAJI δ/Raw264.7 γ IC50 (selectivity) ([1]; ratio of cellular IC50s): W (W = > 1 to <10)

C/C=C/c1cccc2cc([C@H](C)NC(=O)c3c(N)nn4cccnc34)n(-c3ccccc3)c(=O)c12 [Compound 70]
PI3K δ/PI3K γ IC50 (selectivity) (PI3K γ): X (key: V = 0.1 to 1; W = > 1 to <10; X = 10 to <50; Y = 50 to <850)
RAJI δ/Raw264.7 γ IC50 (selectivity) [1]: X (key: V = 0.1 to 1; W = > 1 to <10; X = 10 to <50; Y = 50 to <850)

Cc1c(C#Cc2cccc3nc([C@H](C)NC(=O)c4c(N)nn5cccnc45)n(-c4ccccc4)c(=O)c23)cnn1C [Compound 88, (S)-2-amino-N-(1-(5-((1,5-dimethyl-1H-pyrazol-4-yl)ethynyl)-4-oxo-3-phenyl-3,4-dihydroquinazolin-2-yl)ethyl)pyrazolo[1,5-a]pyrimidine-3-carboxamide]
Stability in serum [2]: good stability in serum

CC(C)n1c([C@H](C)Nc2ncnc(N)c2C#N)cc2cccc(-c3ccc(=O)n(C)c3)c2c1=O [Compound AA]
Inhibition of CXCL12-induced p-AKT [3]: did not significantly inhibit
Free Plasma Conc (nM) […] ([4]; approximately 4 hours post LPS challenge): BLQ
Free Plasma Conc (nM) 1.5 h ([4]; at time of LPS challenge): BLQ
effect on IFN-γ (human T cells): highly selective inhibitor
Neutrophil in bronchoalveolar lavage fluid (BALF) [5]: reduced neutrophil
Inhibition of CXCL12-induced p-AKT [6]: did not significantly inhibit

O=P1(N(CCCl)CCCl)NCCCO1 (stereo not shown) [cyclophosphamide, reference compound]
Tumor growth, LLC tumor brei model (LLC tumor): reduced tumor growth by about the same amount
